Five compounds from patent publication US4549988A, “3H-2-Benzazepines” (Hoffmann-La Roche Inc., priority 1983, dated 1985) can be followed below.

One data set deals with ^3 H--Imipramine Binding. Description: imipramine binding assay (3H-imipramine, rat cortex homogenate). On the set-up: species or system Sprague Dawley male rats. The note with it: 15 minutes at room temperature, nonspecific binding by 10^-3 M imipramine. On the procedure: IMIPRAMINE BINDING ASSAY METHOD
Sprague Dawley male rats (180 g) are decapitated and the brains immediately placed on ice. Cortex is dissected and homogenized in 8 volumes of 0.25M sucrose. Homogenate is centrifuged at 2900 rpm (1000×g) in a Sorvall RCLB centrifuge with a SM 24 head. Supernatant is decanted and polytronized for 60 seconds using a Brinkmann Polytron (Model PT-10) at setting 5. Dilutions of imipramine hydrochloride are made in ehtanol (1:5). Each assay sample contains: 1.8 ml of Krebs Ringer Buffer, 20 μl of imipramine or other drugs and 20 μl of ^3 H-imipramine ([…]). The ^3 H-imipramine is from New England Nuclear #NET 576, 20-40 curies/millimole. Imipramine (10^-3 M) is used to define nonspecific binding. Incubation is for 15 minutes at room temperature. Samples are then put in ice bath for 5 minutes. Each sample is filtered on a 45-place manifold (E. Sandbek Co., Airville, Pa.). Filter is a Whatman GF/B. Filters are placed in 13 ml of aquasol and shaken for 2 hours, then the radioactivity trapped on the filter is determined by liquid scintillation spectrometry.

The subject of data set [1] is metrazol convulsive seizures. Description: antimetrazol test (oral compound, protection from metrazol-induced convulsive seizures). The format is in vivo. The following applies: Mus musculus, 1 h, mice, one hour before metrazol s.c., Miller-Tainter method. On the procedure: Periodically a metrazol standardization test precedes the assay to ascertain the quantity of metrazol, administered to control mice, sufficient to induce convulsive seizures in all animals. This is usually 125 mg/kg. In the antimetrazol test, a compound is administered orally to groups of four mice at various dose levels. One hour later, metrazol (at a dose level previously determined in the standardization test) is administered subcutaneously and the animals are observed for protection from convulsive seizures. Results are recorded as the number of animals protected against convulsions. The dose at which 50% of the animals are protected from convulsive seizures is expressed as the ED50. On active compounds, 8 animals employed per dose group. The ED50 is calculated by the Miller-Tainter method (Proc.Soc.Exp.Med. and Bio., 57, 261, 1944).

The nature of data set [2]: Toxicity, 24 hr. LD50 (PO). The following applies: in vivo.

Compound `Cl.Cl.NCC#CC1=CCN=C(c2ccccc2F)c2cc(Cl)ccc21` [8-Chloro-5-(1-amino-2-propyn-3-yl)-1-(2-fluorophenyl)-3H-2-benzazepine dihydrochloride] returned a concentration for half-maximal inhibition (IC50) at ^3 H--Imipramine Binding of 20 µM. Besides, the ED50 in data set [1] turned out to be 3 mg/kg. Also, the LD50 at 24 h in data set [2] worked out at 500 mg/kg.

In data set [1], `CN(C)CC#CC1=CCN=C(c2ccccc2F)c2cc(Cl)ccc21.Cl.Cl` [8-Chloro-5-(1-dimethylamino-2-propyn-3-yl)-1-(2-fluorophenyl)-3H-2-benzazepine dihydrochloride] yielded an ED50 of 19 mg/kg. The same compound registered a median lethal dose (LD50) at 24 h in data set [2] greater than 1000 mg/kg.

`[O-][N+]1=C(c2ccccc2)c2cc(Cl)ccc2C=CC1` [8-Chloro-1-phenyl-3H-2-benzazepine-2-oxide] showed an ED50 in data set [1] of 5.2 mg/kg. Moreover, in data set [2], the LD50 at 24 h was greater than 1000 mg/kg.

Regarding `Cl.Cl.NCC#CC1=CCN=C(c2ccccc2)c2cc(Cl)ccc21` [8-Chloro-5-(1-amino-2-propyn-3-yl)-1-phenyl-3H-2-benzazepine dihydrochloride], at ^3 H--Imipramine Binding, the IC50 turned out to be 11 µM. This compound yielded an ED50 in data set [1] of 32 mg/kg. The LD50 at 24 h in data set [2] worked out at 500 mg/kg.

`CN(C)CCCN1c2ccccc2CCc2ccccc21` [Imipramine, reference compound] had an IC50 on ^3 H--Imipramine Binding of 7.1 µM.
